Assay [1] deals with T1, Chymase (Homo sapiens, UniProt P23946).
T1 sequence (P23946 whole entry): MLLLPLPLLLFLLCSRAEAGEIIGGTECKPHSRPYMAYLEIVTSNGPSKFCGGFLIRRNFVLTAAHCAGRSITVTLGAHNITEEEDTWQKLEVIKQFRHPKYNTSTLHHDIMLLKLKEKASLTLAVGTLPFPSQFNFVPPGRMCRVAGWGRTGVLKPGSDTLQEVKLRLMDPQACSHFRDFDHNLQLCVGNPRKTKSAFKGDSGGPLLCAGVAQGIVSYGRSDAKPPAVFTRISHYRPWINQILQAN
Nature of the assay: In vitro inhibitory activity against human chymase.

Assay [2] deals with T1, Chymase. Nature of the assay: In vitro inhibitory activity against human chymase; NI Indicates no inhibition at 10 uM.
The target in assay [3] is T2, Cathepsin G (Homo sapiens, UniProt P08311).
T2 sequence (P08311 whole entry): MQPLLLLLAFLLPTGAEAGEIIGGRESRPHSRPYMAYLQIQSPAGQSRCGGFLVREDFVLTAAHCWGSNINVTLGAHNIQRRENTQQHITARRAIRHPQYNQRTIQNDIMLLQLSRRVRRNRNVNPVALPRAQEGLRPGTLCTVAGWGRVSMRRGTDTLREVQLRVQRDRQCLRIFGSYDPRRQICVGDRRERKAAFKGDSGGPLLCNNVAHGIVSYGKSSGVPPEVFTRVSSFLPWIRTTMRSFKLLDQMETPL
Put plainly: In vitro inhibitory activity against human cathepsin G.

The nature of assay [4]: In vitro inhibitory activity against human elastase.
Assay [5] is filed under the species Rattus norvegicus. Nature of the assay: Percentage of compound present in rat plasma after incubation for 60 min at 37 degree C. The assay is classed as functional, organism-based.

The term IC50 denotes the concentration needed to halve the response being measured. A lower IC50 goes with inhibition by little substance. Take `Cc1c(S(=O)(=O)Nc2ccc(C=O)cc2S(C)(=O)=O)sc2ccc(F)cc12`: the IC50 in assay [1] was > 1000 nM.
Still for that read-out and setting: with `COC(=O)c1ccc(NS(=O)(=O)c2sc3ccc(Cl)cc3c2C)c(S(C)(=O)=O)c1C` the figure was 594 nM; with `CCCS(=O)(=O)c1ccc(NS(=O)(=O)c2sc3ccc(Cl)cc3c2C)cc1`, 10600 nM.
On the same count and under the same terms, with `Cc1c(S(=O)(=O)Nc2ccc(CO)cc2S(C)(=O)=O)sc2ccc(F)cc12` the figure was 337 nM.
For the compound `Cc1c(S(=O)(=O)Nc2ccc([N+](=O)[O-])cc2)sc2ccc(Cl)cc12`, the IC50 entry in assay [2] is “No inhibition”.
With `CCCSc1ccc(NS(=O)(=O)c2sc3ccc(Cl)cc3c2C)cc1`, the IC50 result in assay [2] was “No inhibition”.
Turning to `COC(=O)c1ccc(NS(=O)(=O)c2sc3ccc(F)cc3c2C)c(S(C)(=O)=O)c1`, the IC50 in assay [3] and in assay [4] was > 10 µM in each case. The compound further displayed a Stability in assay [5] of 74.3%.
In turn, `COCc1ccc(NS(=O)(=O)c2sc3ccc(F)cc3c2C)c(S(C)(=O)=O)c1` yielded an IC50 in assay [1] of 192 nM.
For `COC(=O)c1ccc(NS(=O)(=O)c2sc3ccc(Cl)cc3c2C)c(S(C)(=O)=O)c1`, the IC50 in assay [3] and in assay [4] was > 10 µM in each case. In addition, the Stability in assay [5] came out at 93.9%.
As for `Cc1c(S(=O)(=O)Nc2ccc(C(=O)O)cc2S(C)(=O)=O)sc2ccc(F)cc12`, in assay [1], the IC50 was > 1000 nM.
Regarding `Cc1c(S(=O)(=O)Nc2ccc(C(N)=O)cc2S(C)(=O)=O)sc2ccc(F)cc12`, the 50% inhibitory concentration (IC50) in assay [1] was > 1000 nM.
Take `CC(=O)c1ccc(NS(=O)(=O)c2sc3ccc(F)cc3c2C)c(S(C)(=O)=O)c1`: the IC50 in assay [3] and in assay [4] was > 10 µM throughout. Moreover, the Stability in assay [5] is 96.2%.
`Cc1c(S(=O)(=O)Nc2ccc(C#N)cc2)sc2ccc(Cl)cc12`: the IC50 entry in assay [2] is “No inhibition”.
In the case of `COC(=O)c1ccc(NS(=O)(=O)c2sc3ccc(C)cc3c2C)c(S(C)(=O)=O)c1`, half-maximal inhibition in assay [1] (IC50) was put at 325 nM.
For the compound `COC(=O)c1ccc(NS(=O)(=O)c2sc3ccc(Cl)cc3c2C)c(C(=O)OC)c1`, the IC50 entry in assay [2] is “No inhibition”.

Values taken from ChEMBL document CHEMBL1136443, “Structure-activity relationship of benzo[b]thiophene-2-sulfonamide derivatives as novel human chymase inhibitors” (Bioorg Med Chem Lett, 2003).
